According to patent US4916122A, “3'-Azido-2',3'-dideoxyuridine anti-retroviral composition” (University of Georgia Research Foundation, Inc., priority 1987, dated 1990):
In brackets after ≈: the same amount, converted by molar mass. Like-named read-outs stand apart in the source and are kept apart here.

Key:
HIV-1 (Strain RF-II) = experiment: Antiviral activity against HIV-1 in HeLa-T4 cells (Table 4); format: cell-based
Description: Evaluation in Hela-T4 cells infected with HIV-1 (Strain RF-II)
HeLa-T4 cells (described in Cell 47: 333, 1986) are maintained in Dulbecco's Modified Eagle medium containing 10% inactivated fetal calf serum, penicillin (100 U/ml) and streptomycin (100 μg/ml), and the antibiotic G418 (1 mg/ml). The cells are seeded onto a 96-well plate (2×10^4 cells/well per 0.1 ml), and two days later, the supernatant is removed and the virus added. After adsorption for 45 minutes, the inoculum is removed and the cells washed with phosphate-buffered saline (pH 7.2). The compounds at different concentration are then added in maintenance medium (containing 2% serum). […] The cells are fixed with a mixture of 5% glacial acetic acid/95% Ethanol for 15 minutes, and then stained with Giemsa (20% in PSB) for 4 hours. The plates are then washed and dried. The foci are then enumerated with a dissecting stereomicroscope.

HIV (LAV-1) = experiment: Median effective antiviral concentration against HIV (Table 5); format: cell-based; conditions: HIV (LAV-1) vs Friend (EY-10) or Cas-Br-M
SIV (SMM) = experiment: Median effective antiviral concentration against SIV (Table 5); format: cell-based, simian immunodeficiency virus
Description: (§1) A comparison of the differences in median effective an tiviral concentrations between human, non-human primate, and murine retroviruses is shown in Table 5. […] A further comparison of the activity of several nucleoside analogues, including CS-87, against HIV-1 and SIV in human PBM cells is shown in FIG. 6. The effect of delayed treatment with AZT, CS-87 or CS-91 on the replication of HIV-1 and SIV in human PBM cells is shown in FIGS. 7a, b, and c.

Friend (EY-10) = experiment: Median effective antiviral concentration against Friend virus (Table 5); format: cell-based, murine retrovirus; conditions: unidentified retrovirus, in Mus musculus
Description: as §1

[1] = system: Mouse ecotropic (Cas-Br-M); experiment: Median effective antiviral concentration against mouse ecotropic virus (Table 5); format: cell-based, murine retrovirus; conditions: unidentified retrovirus
Description: as §1

in vivo [2] = experiment: in vivo; design: species or system mouse; conditions: mice, 250 mg/kg iv
Description: In rhesus monkeys, the pharmocokinetic parameters after an oral dose of […] of CS-87 are as follows:
^a Mice were administered the drug at a dose of 250 mg/kg iv.

in vivo [3] = format: in vivo, rhesus monkey; conditions: rhesus monkeys, oral dose of 920 mg
Description: In rhesus monkeys, the pharmocokinetic parameters after an oral dose of […] of CS-87 are as follows: […]

in vitro = format: cell-based
Description: The effect of CS-87 on colony formation of human granulocytes-macrophage precursor cells was compared with the effects of AZT and CS-85 in FIG. 1. Vero cells are very fast growing cells, and it can be seen from FIG. 2a that up to a concentration of about 400 micromolar, there is relatively little toxicity to these cells. PBM cells are somewhat more sensitive to CS-87 than the Vero cells, but these cells will still tolerate a concentration of CS-87 of up to about 200 micromolar before significant inhibition is noted (see FIG. 2b).

HIV-1 [4] = system: HIV-1
HIV = conditions: in vitro
L1210 cells = conditions: in vitro; Lin et al.; Lin and Mancini; cited from earlier work
Coxsackie virus B4 = conditions: Colla et al.; cited from earlier work
polio virus-1 = conditions: cited from earlier work
reovirus-1 = conditions: Colla et al.; cited from earlier work
HIV-1 [5] = experiment: microbe, parasite or virus in culture; conditions: Human immunodeficiency virus 1, PBMC, read-out: PBM (EC50)
HIV-1 (Strain HTLV-III) = experiment: Antiviral activity against HIV-1 in ATH-8 cells (Table 4)
HIV-1 p24 = experiment: Inhibition of HIV replication in human PBM cells, p24 RIA (Table 3)
HIV p24 and p41 = experiment: Inhibition of HIV replication in human PBM cells, western blot analysis (Table 3)
HIV-1 (strain LAV) = experiment: Inhibition of HIV replication in human PBM cells, reverse transcriptase assay (Table 3)
[6] = Human immunodeficiency virus 1, PBMC, in Homo sapiens, read-out: RIA p24 % Inhibition
[7] = Human immunodeficiency virus 1, PBMC, in Homo sapiens, read-out: RT % Inhibition (corrected)

## [N-]=[N+]=N[C@H]1C[C@H](n2ccc(=O)[nH]c2=O)O[C@@H]1CO [CS-87, 3'-azido-2',3'-dideoxyuridine]
HIV-1 (Strain RF-II)
  activity compared to d2C in HeLa-T4 cells: less active
HIV-1 (Strain RF-II); Human immunodeficiency virus 1, HeLaT4, HIV-1
  EC50: 1240 nM
HIV (LAV-1)
  effectiveness against HIV (LAV-1) compared with Friend or mouse ecotropic virus: much more effective
SIV (SMM); SIV (SMM) vs Friend (EY-10) or Cas-Br-M
  effectiveness against SIV (SMM) compared with Friend or mouse ecotropic virus: much more effective
SIV (SMM); Simian immunodeficiency virus
  EC50: 200 nM
Friend (EY-10)
  EC50: > 10000 nM
[1]
  EC50: 9100 nM
In vivo [2]; 5 min
  Ratio: % B/S: 6.3%
  Serum levels: 125700 ng/mL
In vivo [2]; mouse, in vivo, iv, 250 mg/kg, 5 min, read-out: Ratio: % B/S
  Kp at 5 min: 0.043
In vivo [2]; mouse, in vivo, iv, 250 mg/kg, 5 min, read-out: Serum levels
  concentration at 5 min: 71300 ng/mL
In vivo [2]; mouse, in vivo, iv, 250 mg/kg, 31 min, read-out: Brain levels
  concentration at 31 min: 11100 ng/mL
In vivo [2]; mouse, in vivo, iv, 250 mg/kg, 31 min, read-out: Ratio: % B/S
  Kp at 31 min: 0.122
In vivo [2]; mouse, in vivo, iv, 250 mg/kg, 31 min, read-out: Serum levels
  concentration at 31 min: 91000 ng/mL
In vivo [2]; mouse, in vivo, iv, 250 mg/kg, 34 min, read-out: Brain levels
  concentration at 34 min: 5670 ng/mL
In vivo [2]; mouse, in vivo, iv, 250 mg/kg, 34 min, read-out: Ratio: % B/S
  Kp at 34 min: 0.102
In vivo [2]; mouse, in vivo, iv, 250 mg/kg, 34 min, read-out: Serum levels
  concentration at 34 min: 55500 ng/mL
In vivo [2]; mouse, in vivo, iv, 250 mg/kg, 71 min, read-out: Brain levels
  concentration at 71 min: 6400 ng/mL
In vivo [2]; mouse, in vivo, iv, 250 mg/kg, 71 min, read-out: Ratio: % B/S
  Kp at 71 min: 0.261
In vivo [2]; mouse, in vivo, iv, 250 mg/kg, 71 min, read-out: Serum levels
  concentration at 71 min: 24500 ng/mL
In vivo [2]; mouse, in vivo, iv, 250 mg/kg, 72 min, read-out: Brain levels
  concentration at 1.2 h: 7330 ng/mL
In vivo [2]; mouse, in vivo, iv, 250 mg/kg, 72 min, read-out: Ratio: % B/S
  Kp at 1.2 h: 0.134
In vivo [2]; mouse, in vivo, iv, 250 mg/kg, 72 min, read-out: Serum levels
  concentration at 1.2 h: 54800 ng/mL
In vivo [3]; rhesus monkey, in vivo
  AUC: 113 µg·h/mL
In vivo [3]; rhesus monkey, in vivo, read-out: clearance (converted)
  CL/F: 29 mL/min/kg
In vivo [3]; rhesus monkey, in vivo, read-out: elimination rate constant, k (converted)
  k el: 0.000397 s⁻¹
In vivo [3]; rhesus monkey, in vivo, read-out: elimination t1/2 k (converted)
  half-life: 28.8 min
In vivo [3]; rhesus monkey, in vivo, read-out: volume of distribution (Vss)
  Vd/F: 1.2 L/kg
In vivo [3]
  absorption rate constant (ka): 1.73 h⁻¹
  absorption rate t1/2: 24 min
In vitro; human, PBM cells, FIG. 2b, read-out: concentration tolerated by PBM cells before significant inhibition is noted
  MNTC: ~200 µM
In vitro; monkey, Vero cells, FIG. 2a, read-out: concentration up to which there is relatively little toxicity to Vero cells
  MNTC: ~400 µM
HIV-1 [4]
  activity compared to d2C in PBM cells: less active
HIV
  activity against HIV, in words: selective anti-HIV-1 activity
L1210 cells
  activity against L1210 cells: inactive
Coxsackie virus B4
  activity against Coxsackie virus B4: inactive
Polio virus-1
  activity against polio virus-1: inactive
reovirus-1
  activity against reovirus-1: inactive
HIV-1 [5]
  EC50: 180 nM
HIV-1 (Strain HTLV-III); ATH-8 cells
  activity compared to d2C in ATH-8 cells: comparable activity to d2C
HIV-1 (Strain HTLV-III); Human immunodeficiency virus 1, 240 h, read-out: ATH-8 (MIC)
  MIC: 0.4 µM (≈ 0.101 µg/mL)
HIV-1 p24; 0.1 μM
  RIA p24 (Dupont kit): 21.86 ng/mL
HIV-1 p24; 1 μM
  RIA p24 (Dupont kit): 11.76 ng/mL
HIV-1 p24; 10 μM
  RIA p24 (Dupont kit): 0.65 ng/mL
HIV-1 p24; [6]
  inhibition at 0.1 µM: 9.2%
  inhibition at 1 µM: 51.2%
  inhibition at 10 µM: 97.3%
HIV p24 and p41; 0.1 μM
  Western blot p24 (band intensity): 3+
  Western blot p41 (band intensity): 2+
HIV p24 and p41; 1 μM
  Western blot p24 (band intensity): 2+
  Western blot p41 (band intensity): 1+
HIV p24 and p41; 10 μM
  Western blot p24 (band intensity): 0
  Western blot p41 (band intensity): 0
HIV-1 (strain LAV); 0.1 μM
  RT: Mean DPM/ml on day 5 (3 day old cells): 367,934 DPM/ml
HIV-1 (strain LAV); 1 μM
  RT: Mean DPM/ml on day 5 (3 day old cells): 188,878 DPM/ml
HIV-1 (strain LAV); 10 μM
  RT: Mean DPM/ml on day 5 (3 day old cells): 12,904 DPM/ml
HIV-1 (strain LAV); [7]
  inhibition at 0.1 µM: 42.3%
  inhibition at 1 µM: 70.4%
  inhibition at 10 µM: 98%
